What was measured:
Type in all cases: in vivo
Echinochloa crus-galli = test: Paddy herbicidal activity test; settings: irrigated pot, treated at 3.5 leaf stage of Echinochloa crus-galli, 30 days
Protocol: (§1) Rice paddy soil was filled into a 1/10000 are pot followed by the addition of suitable amounts of water and chemical fertilizer, kneading, seeding with Echinochloa crus-galli, Monochoria vaginalis and Scirpus juncoides and maintaining in an irrigated state at a water depth of 3 cm. Wettable powders of Target Compound (I) shown in Table 1 prepared in compliance with the preparation examples were diluted with a suitable amount of water, rice plants in the 2.0 leaf stage were transplanted during 3.5 leaf stage of Echinochloa crus-galli, and treated by dropping in chemical in the prescribed amount per 10 are using a pipette. After treating for 30 days in a glass greenhouse at an average atmospheric temperature of […], the herbicidal efficacy thereof was investigated. Evaluation of herbicidal efficacy was carried out by comparing growth inhibition rate (%) with an untreated group, while evaluation of chemical damage was carried out by comparing growth inhibition rate (%) with the state of a complete eradication group, and were evaluated at 11 levels indicated below. • 0 (exponent): 0% to less than 10% (growth inhibition rate) • 1: 10% to less than 20% • 2: 20% to less than 30% • 3: 30% to less than 40% • 4: 40% to less than 50% • 5: 50% to less than 60% • 6: 60% to less than 70% • 7: 70% to less than 80% • 8: 80% to less than 90% • 9: 90% to less than 100% • 10: 100%

Monochoria vaginalis = test: Paddy herbicidal activity test; settings: irrigated pot, treated at 3.5 leaf stage of Echinochloa crus-galli, 30 days
Protocol: as §1

Scirpus juncoides = test: Paddy herbicidal activity test; settings: irrigated pot, treated at 3.5 leaf stage of Echinochloa crus-galli, 30 days
Protocol: as §1

Oryza sativa = test: Paddy herbicidal activity test, chemical damage to transplanted rice; settings: rice transplanted in 2.0 leaf stage, 30 days
Protocol: as §1

Amaranthus retroflexus [1] = test: Farming soil treatment test; settings: soil surface spray prior to weed growth, 30 days, 30° C.
Protocol: (§2) Evaluation of herbicidal efficacy was carried out by comparing growth inhibition rate (%) with an untreated group, while evaluation of chemical damage was carried out by comparing growth inhibition rate (%) with the state of a complete eradication group, and were evaluated at 11 levels indicated below. • 0 (exponent): 0% to less than 10% (growth inhibition rate) • 1: 10% to less than 20% • 2: 20% to less than 30% • 3: 30% to less than 40% • 4: 40% to less than 50% • 5: 50% to less than 60% • 6: 60% to less than 70% • 7: 70% to less than 80% • 8: 80% to less than 90% • 9: 90% to less than 100% • 10: 100% Field soil was filled into a 1/6000 are pot followed by seeding with Digitaria ciliaris, Chenopodium album and Amraranthus retroflexus and covering with soil. Wettable powders of compounds of formula (I) shown in Table 1 prepared in compliance with the preparation examples were diluted with water to the prescribed amount of chemical and uniformly sprayed onto each soil surface layer using 100 liters of sprayed water per 10 are prior to weed growth following seeding. After treating for 30 days in a glass greenhouse at an average atmospheric temperature of 30° C., the herbicidal efficacy thereof was investigated. Evaluation of herbicidal efficacy was carried out in the same manner as the above-mentioned Test Example 1,

Chenopodium album [2] = test: Farming soil treatment test; settings: soil surface spray prior to weed growth, 30 days, 30° C.
Protocol: as §2

Digitaria ciliaris [3] = test: Farming soil treatment test; settings: soil surface spray prior to weed growth, 30 days, 30° C.
Protocol: as §2

Amaranthus retroflexus [4] = test: Weed foliar treatment test (Test 3); settings: foliar spray at 1.0 to 2.0 leaf stage of Digitaria ciliaris, 3 weeks, 25° C.
Protocol: (§3) Evaluation of herbicidal efficacy was carried out by comparing growth inhibition rate (%) with an untreated group, while evaluation of chemical damage was carried out by comparing growth inhibition rate (%) with the state of a complete eradication group, and were evaluated at 11 levels indicated below. • 0 (exponent): 0% to less than 10% (growth inhibition rate) • 1: 10% to less than 20% • 2: 20% to less than 30% • 3: 30% to less than 40% • 4: 40% to less than 50% • 5: 50% to less than 60% • 6: 60% to less than 70% • 7: 70% to less than 80% • 8: 80% to less than 90% • 9: 90% to less than 100% • 10: 100% Soil was filled into a 1/6000 are pot followed by seeding with Digitaria ciliaris, Chenopodium album and Amaranthus retroflexus, covering with soil, and cultivating in a glass greenhouse at an average atmospheric temperature of 25° C. Wettable powders of Target Compound (I) shown in Table 1 prepared in compliance with the preparation examples were diluted with water to the prescribed amount of chemical and uniformly sprayed onto the weeds using 150 liters of sprayed water per 10 are when Digitaria ciliaris had grown to the 1.0 to 2.0 leaf stage. After treating for 3 weeks in a glass greenhouse at an average atmospheric temperature of 25° C., the herbicidal efficacy thereof was investigated. Evaluation of herbicidal efficacy was carried out in the same manner as the above-mentioned Test Example 1.

Chenopodium album [5] = test: Weed foliar treatment test (Test 3); settings: foliar spray at 1.0 to 2.0 leaf stage of Digitaria ciliaris, 3 weeks, 25° C.
Protocol: as §3

Digitaria ciliaris [6] = test: Weed foliar treatment test (Test 3); settings: foliar spray at 1.0 to 2.0 leaf stage of Digitaria ciliaris, 3 weeks, 25° C.
Protocol: as §3

Digitaria ciliaris [7] = test: Weed foliar treatment test (Test 4, higher leaf stage); settings: 10 g a.i./10a; foliar spray at 4.0 to 5.0 leaf stage of Digitaria ciliaris (plant height 10 cm to 15 cm); 20 days, 25° C.
Protocol: (§4) Evaluation of herbicidal efficacy was carried out by comparing growth inhibition rate (%) with an untreated group, while evaluation of chemical damage was carried out by comparing growth inhibition rate (%) with the state of a complete eradication group, and were evaluated at 11 levels indicated below. • 0 (exponent): 0% to less than 10% (growth inhibition rate) • 1: 10% to less than 20% • 2: 20% to less than 30% • 3: 30% to less than 40% • 4: 40% to less than 50% • 5: 50% to less than 60% • 6: 60% to less than 70% • 7: 70% to less than 80% • 8: 80% to less than 90% • 9: 90% to less than 100% • 10: 100% Field soil was filled into a 1/4500 are pot followed by seeding with Digitaria ciliaris and Galinsoga parviflora, covering with soil and cultivating in a glass greenhouse at an average atmospheric temperature of 25° C. Wettable powders of Target Compound (I) shown, in Table 1 prepared in compliance with the preparation examples were diluted with water to the prescribed amount of chemical and uniformly sprayed onto the weeds using 100 liters of sprayed water per 10 are when Digitaria ciliaris had grown to the 4.0 to 5.0 leaf stage (plant height: 10 cm to 15 cm). After treating for 20 days in a glass greenhouse at an average atmospheric temperature of 25° C., the herbicidal efficacy thereof was investigated. Evaluation of herbicidal efficacy was carried out in the same manner as the above-mentioned Test Example 1.

Galinsoga parviflora = test: as above; settings: 10 g a.i./10a; foliar spray at 4.0 to 5.0 leaf stage of Digitaria ciliaris; 20 days, 25° C.
Protocol: as §4

N#Cc1cnn(-c2nn3c(c2Cl)CCCC3)c1NC(=O)CCl [Control Agent 1.9]
herbicidal efficacy (growth inhibition rate level), Echinochloa crus-galli (Echinochloa crus-galli; 1 g a.i./10a): 2 (2: 20% to less than 30%) | herbicidal efficacy (growth inhibition rate level), Echinochloa crus-galli (Echinochloa crus-galli; 5 g a.i./10a): 2 (2: 20% to less than 30%) | herbicidal efficacy (growth inhibition rate level), Monochoria vaginalis (Monochoria vaginalis; 1 g a.i./10a): 2 (2: 20% to less than 30%) | herbicidal efficacy (growth inhibition rate level), Monochoria vaginalis (Monochoria vaginalis; 5 g a.i./10a): 2 (2: 20% to less than 30%) | herbicidal efficacy (growth inhibition rate level), Scirpus juncoides (Scirpus juncoides; 1 g a.i./10a): 0 (0 (exponent): 0% to less than 10% (growth inhibition rate)) | herbicidal efficacy (growth inhibition rate level), Scirpus juncoides (Scirpus juncoides; 5 g a.i./10a): 1 (1: 10% to less than 20%) | chemical damage (growth inhibition rate level), Oryza sativa (Oryza sativa; 1 g a.i./10a): 1 (1: 10% to less than 20%) | chemical damage (growth inhibition rate level), Oryza sativa (Oryza sativa; 5 g a.i./10a): 1 (1: 10% to less than 20%) | herbicidal efficacy (growth inhibition rate level), Amaranthus retroflexus (Amaranthus retroflexus [1]; 5 g a.i./10a): 5 (5: 50% to less than 60%) | herbicidal efficacy (growth inhibition rate level), Amaranthus retroflexus (Amaranthus retroflexus [1]; 10 g a.i./10a): 6 (6: 60% to less than 70%) | herbicidal efficacy (growth inhibition rate level), Chenopodium album (Chenopodium album [2]; 5 g a.i./10a): 1 (1: 10% to less than 20%) | herbicidal efficacy (growth inhibition rate level), Chenopodium album (Chenopodium album [2]; 10 g a.i./10a): 2 (2: 20% to less than 30%) | herbicidal efficacy (growth inhibition rate level), Digitaria ciliaris (Digitaria ciliaris [3]; 5 g a.i./10a): 0 (0 (exponent): 0% to less than 10% (growth inhibition rate)) | herbicidal efficacy (growth inhibition rate level), Digitaria ciliaris (Digitaria ciliaris [3]; 10 g a.i./10a): 1 (1: 10% to less than 20%) | herbicidal efficacy (growth inhibition rate level), Amaranthus retroflexus (Amaranthus retroflexus [4]; 5 g a.i./10a): 6 (6: 60% to less than 70%) | herbicidal efficacy (growth inhibition rate level), Amaranthus retroflexus (Amaranthus retroflexus [4]; 10 g a.i./10a): 6 (6: 60% to less than 70%) | herbicidal efficacy (growth inhibition rate level), Chenopodium album (Chenopodium album [5]; 5 g a.i./10a): 1 (1: 10% to less than 20%) | herbicidal efficacy (growth inhibition rate level), Chenopodium album (Chenopodium album [5]; 10 g a.i./10a): 2 (2: 20% to less than 30%) | herbicidal efficacy (growth inhibition rate level), Digitaria ciliaris (Digitaria ciliaris [6]; 5 g a.i./10a): 2 (2: 20% to less than 30%) | herbicidal efficacy (growth inhibition rate level), Digitaria ciliaris (Digitaria ciliaris [6]; 10 g a.i./10a): 2 (2: 20% to less than 30%) | herbicidal efficacy (growth inhibition rate level), Digitaria ciliaris (Digitaria ciliaris [7]): 1 (1: 10% to less than 20%) | herbicidal efficacy (growth inhibition rate level), Galinsoga parviflora (Galinsoga parviflora): 5 (5: 50% to less than 60%)

CCC(=O)Nc1c(C#N)cnn1-c1nn2c(c1Cl)CCCC2 [Control Agent 4.187]
herbicidal efficacy (growth inhibition rate level), Echinochloa crus-galli (Echinochloa crus-galli; 1 g a.i./10a): 2 (2: 20% to less than 30%) | herbicidal efficacy (growth inhibition rate level), Echinochloa crus-galli (Echinochloa crus-galli; 5 g a.i./10a): 3 (3: 30% to less than 40%) | herbicidal efficacy (growth inhibition rate level), Monochoria vaginalis (Monochoria vaginalis; 1 g a.i./10a): 3 (3: 30% to less than 40%) | herbicidal efficacy (growth inhibition rate level), Monochoria vaginalis (Monochoria vaginalis; 5 g a.i./10a): 3 (3: 30% to less than 40%) | herbicidal efficacy (growth inhibition rate level), Scirpus juncoides (Scirpus juncoides; 1 g a.i./10a): 0 (0 (exponent): 0% to less than 10% (growth inhibition rate)) | herbicidal efficacy (growth inhibition rate level), Scirpus juncoides (Scirpus juncoides; 5 g a.i./10a): 1 (1: 10% to less than 20%) | chemical damage (growth inhibition rate level), Oryza sativa (Oryza sativa; 1 g a.i./10a): 1 (1: 10% to less than 20%) | chemical damage (growth inhibition rate level), Oryza sativa (Oryza sativa; 5 g a.i./10a): 2 (2: 20% to less than 30%) | herbicidal efficacy (growth inhibition rate level), Amaranthus retroflexus (Amaranthus retroflexus [1]; 5 g a.i./10a): 4 (4: 40% to less than 50%) | herbicidal efficacy (growth inhibition rate level), Amaranthus retroflexus (Amaranthus retroflexus [1]; 10 g a.i./10a): 5 (5: 50% to less than 60%) | herbicidal efficacy (growth inhibition rate level), Chenopodium album (Chenopodium album [2]; 5 g a.i./10a): 2 (2: 20% to less than 30%) | herbicidal efficacy (growth inhibition rate level), Chenopodium album (Chenopodium album [2]; 10 g a.i./10a): 3 (3: 30% to less than 40%) | herbicidal efficacy (growth inhibition rate level), Digitaria ciliaris (Digitaria ciliaris [3]; 5 g a.i./10a): 2 (2: 20% to less than 30%) | herbicidal efficacy (growth inhibition rate level), Digitaria ciliaris (Digitaria ciliaris [3]; 10 g a.i./10a): 3 (3: 30% to less than 40%) | herbicidal efficacy (growth inhibition rate level), Amaranthus retroflexus (Amaranthus retroflexus [4]; 5 g a.i./10a): 5 (5: 50% to less than 60%) | herbicidal efficacy (growth inhibition rate level), Amaranthus retroflexus (Amaranthus retroflexus [4]; 10 g a.i./10a): 6 (6: 60% to less than 70%) | herbicidal efficacy (growth inhibition rate level), Chenopodium album (Chenopodium album [5]; 5 g a.i./10a): 2 (2: 20% to less than 30%) | herbicidal efficacy (growth inhibition rate level), Chenopodium album (Chenopodium album [5]; 10 g a.i./10a): 3 (3: 30% to less than 40%) | herbicidal efficacy (growth inhibition rate level), Digitaria ciliaris (Digitaria ciliaris [6]; 5 g a.i./10a): 2 (2: 20% to less than 30%) | herbicidal efficacy (growth inhibition rate level), Digitaria ciliaris (Digitaria ciliaris [6]; 10 g a.i./10a): 3 (3: 30% to less than 40%) | herbicidal efficacy (growth inhibition rate level), Digitaria ciliaris (Digitaria ciliaris [7]): 2 (2: 20% to less than 30%) | herbicidal efficacy (growth inhibition rate level), Galinsoga parviflora (Galinsoga parviflora): 3 (3: 30% to less than 40%)

— US10258041B2, “Substituted pyrazolylpyrazole derivative and use of same as herbicide” (KYOYU AGRI CO., LTD., priority 2015, dated 2019)
